Earlier results, collected in US8058260B2, “2′-C-methyl-ribofuranosyl cytidine prodrugs, pharmaceutical compositions and uses thereof” (XenoPort, Inc., priority 2006, dated 2011).
Where two headings read alike, the source gives them in different places.

Tests used:
[1] = human, in vivo
HCV = details: clinical evaluation as a treatment for HCV
HCV NS5B polymerase = HCV NS5B polymerase (Hepatitis C virus genotype 1b, UniProt P26663)
Chain of HCV NS5B polymerase (P26663 2420-3010): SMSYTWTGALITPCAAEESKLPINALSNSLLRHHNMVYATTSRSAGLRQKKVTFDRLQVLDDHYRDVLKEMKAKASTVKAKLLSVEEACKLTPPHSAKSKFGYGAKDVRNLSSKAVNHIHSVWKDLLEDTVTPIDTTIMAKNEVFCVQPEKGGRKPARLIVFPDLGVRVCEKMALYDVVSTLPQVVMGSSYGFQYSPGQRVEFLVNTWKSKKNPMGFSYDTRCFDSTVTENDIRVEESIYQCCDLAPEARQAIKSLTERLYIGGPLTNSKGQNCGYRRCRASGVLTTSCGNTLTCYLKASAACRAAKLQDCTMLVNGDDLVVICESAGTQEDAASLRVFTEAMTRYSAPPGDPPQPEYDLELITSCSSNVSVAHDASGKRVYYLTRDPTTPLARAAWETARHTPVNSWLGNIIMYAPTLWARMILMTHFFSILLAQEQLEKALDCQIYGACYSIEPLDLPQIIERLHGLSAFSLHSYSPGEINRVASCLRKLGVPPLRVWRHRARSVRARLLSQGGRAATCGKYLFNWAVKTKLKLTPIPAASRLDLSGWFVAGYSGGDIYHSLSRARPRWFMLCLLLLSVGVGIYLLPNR

| inhibitory activity against the HCV NS5B polymerase (HCV NS5B polymerase) | SMILES | gastrointestinal toxicity / side-effects (in vivo, po) | bioavailability [1] | antiviral activity (HCV) | gastrointestinal toxicity / side-effects (oral administration, nausea, vomiting, diarrhea in some patients) |
| --- | --- | --- | --- | --- | --- |
| – | CC(C)[C@H](N)C(=O)O[C@@H]1[C@@H](CO)O[C@@H](n2ccc(N)nc2=O)[C@]1(C)O [NM 283, 3′-O-L-valinyl ester of β-D-2′-C-methyl-ribofuranosyl cytidine] | gastrointestinal side-effects | good bioavailability | significant antiviral activity | – |
| potent inhibitory activity | C[C@@]1(O)[C@H](O)[C@@H](CO)O[C@H]1n1ccc(N)nc1=O [β-D-2′-C-methyl-ribofuranosyl cytidine] | – | – | – | gastrointestinal (GI) toxicity |
